Data on seven compounds can be found in patent US9593381B2, “Method and kit for detecting carbapenemase genes” (Amplidiag OY, priority 2009, dated 2017).

Bounds are passed on as bounds.

Test [1] concerns the target T1, NDM-1 (Klebsiella pneumoniae, UniProt C7C422). The following applies: metallo-β-lactamase NDM-1; cited from earlier work.
Test [2] addresses T1, NDM-1. The settings on record: cited from earlier work.
Test [3] relates to Enterobacter cloacae strain harbouring IMI-2 gene. Briefly: Antibiotic susceptibility (MIC) of the IMI-2 positive clinical strain. Format: cell-based. More on the design: MIC: unit not given beside the values. The following applies: for resistance of the strain: IMI-2 positive Enterobacter cloacae strain.

T1 sequence (C7C422 29-270 limits assumed): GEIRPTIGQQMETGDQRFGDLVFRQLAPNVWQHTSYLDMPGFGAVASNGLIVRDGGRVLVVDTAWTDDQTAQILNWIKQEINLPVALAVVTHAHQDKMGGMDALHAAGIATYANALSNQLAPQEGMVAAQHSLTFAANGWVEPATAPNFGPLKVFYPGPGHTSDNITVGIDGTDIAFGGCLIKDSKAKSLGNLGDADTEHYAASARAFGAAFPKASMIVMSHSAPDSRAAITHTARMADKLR

For the compound `C[C@H]1[C@H](NC(=O)/C(=N\OC(C)(C)C(=O)O)c2csc(N)n2)C(=O)N1S(=O)(=O)O` [aztreonam], the “hydrolysis by NDM-1” value at NDM-1 [1] is listed as “can hydrolyze all β-lactams except aztreonam”.

Consider `CO/N=C(\C(=O)N[C@@H]1C(=O)N2C(C(=O)O)=C(COC(C)=O)CS[C@H]12)c1csc(N)n1` [cefotaxime], for which the “binding to NDM-1 compared to VIM-2” value at NDM-1 [2] is reported as “tighter binding”.

In the case of `CO/N=C(\C(=O)N[C@@H]1C(=O)N2C(C(=O)O)=C(COC(N)=O)CS[C@H]12)c1ccco1` [cefuroxime], the “binding to NDM-1 compared to VIM-2” value at NDM-1 [2] is on record as “tighter binding”.

For the compound `CC(=O)OCC1=C(C(=O)O)N2C(=O)[C@@H](NC(=O)Cc3cccs3)[C@H]2SC1` [cephalothin], the “binding to NDM-1 compared to VIM-2” value at NDM-1 [2] is “tighter binding”.

Turning to `C[C@@H](O)[C@H]1C(=O)N2C(C(=O)O)=C(S[C@@H]3CN[C@H](C(=O)Nc4cccc(C(=O)O)c4)C3)[C@H](C)[C@H]12` [ertapenem], in test [3], the “resistance of the strain” value is “highly resistant”. In test [3] (IMI-2 positive Enterobacter cloacae strain isolated from a patient in intensive care unit), this compound showed an MIC of over 256.

Take `C[C@@H](O)[C@H]1C(=O)N2C(C(=O)O)=C(S[C@@H]3CN[C@H](C(=O)N(C)C)C3)[C@H](C)[C@H]12` [meropenem]: the “resistance of the strain” value in test [3] is given as “highly resistant”.

With trimetoprim/sulfa, the “resistance of the strain” value in test [3] is “not, however, resistant”.
